System: advanced solid tumors with FGFR mutations or fusions
Experiment: Phase 2 RAGNAR study (NCT04083976): tumor response per RECIST v1.1 or RANO by IRC and investigator (ORR, DOR, DCR, CBR, PFS, OS, best overall response)
Type: in vivo, human
Conditions: for DOR of longest ongoing PR: + = censored, IA3; for Clinical Benefit Rate n(%) (95% CI) / Confirmed Objective Response Rate n(%) (95% CI) / Disease Control Rate n(%) (95% CI) / Median DOR (95% CI) / Median PFS (95% CI): BPC, IRC
Text: Subjects ≥12 years of age with target FGFR mutations or any FGFR gene fusions were enrolled into the Broad Panel Cohort. […] A subgroup of subjects in the Broad Panel Cohort with a select panel of pre-specified FGFR markers were identified as the Core Panel Cohort (for analysis only). While the Broad Panel Cohort consists of target FGFR mutations and any fusions, the Core Panel Cohort consists of a select subset of FGFR mutations or fusions. Subjects with any other FGFR mutations that are not captured in the Broad Panel Cohort are included in the study as the Exploratory Cohort. A separate Cholangiocarcinoma Expansion Cohort enrolled subjects with target FGFR mutations or any FGFR gene fusion once the Broad Panel Cohort reached the cap of approximately 30 subjects for cholangiocarcinoma. […] Adolescent subjects enrolled in the Broad Panel Cohort (≥12 to <18 years) are considered part of the Broad Panel Cohort and the Pediatric Cohort.
(§1) Each dose was taken approximately at the same time each day, with or without food.
The Treated Population will consist of all subjects who receive at least 1 dose of study drug. The Treated Population is the primary population for efficacy and safety analyses. […] Adequate disease assessment is defined as having enough evidence to indicate that progression has or has not occurred.
Statistical Methods: For the Broad Panel Cohort, the primary endpoint was overall response rate (ORR) based on RECIST v1.1. or RANO as assessed by the IRC and was calculated with a 95% 2-sided exact confidence interval (CI). The primary endpoint was analyzed using data from the Treated Population (defined as all subjects who receive at least 1 dose of study drug) in the Broad Panel Cohort and the Core Panel Cohort. An error-spending function approach was used to split the significance level for the Broad Panel Cohort and the Core Panel Cohort.
as §1

[1] = CUP (Carcinoma of Unknown Primary), N=8
[2] = EDMTL (Endometrial Cancer), N=6
[3] = HNSCC (Squamous Cell Head and Neck Cancers), N=5

Question: Which “DOR of longest ongoing PR” value (1 patient with endometrial cancer) does the source give for `COc1cc(OC)cc(N(CCNC(C)C)c2ccc3ncc(-c4cnn(C)c4)nc3c2)c1` [erdafitinib, N-(3,5-dimethoxy-phenyl)-N′-(1-methylethyl)-N-[3-(1-methyl-1H-pyrazol-4-yl)quinoxalin-6-yl]ethane-1,2-diamine] here?
Answer: ≥ 13.7 months

Question: What about the “DOR of longest ongoing PR” value (1 patient with pancreatic cancer) of the same molecule?
Answer: ≥ 13.8 months

Question: What about the “clinical benefit rate (CBR: CR+PR+SD>4 months)” value (69/124, efficacy analysis set) of the same molecule?
Answer: 55.6%

Question: And the “Objective Response Rate” value (BCC, N=1, efficacy analysis set, investigator assessment)?
Answer: 0 (NE, NE) %

Question: What about the “Clinical Benefit Rate n(%) (95% CI)” value (BRST (Breast Cancer), N=14) of the same molecule?
Answer: 6 (42.9%)

Question: And the “Confirmed Objective Response Rate n(%) (95% CI)” value (BRST (Breast Cancer), N=14)?
Answer: 5 (35.7%)

Question: What about the “Disease Control Rate n(%) (95% CI)” value (BRST (Breast Cancer), N=14) of the same molecule?
Answer: 9 (64.3%)

Question: What about the “Median DOR (95% CI)” value (BRST (Breast Cancer), N=14) of the same molecule?
Answer: NE (NE, NE)

Question: And the “Median PFS (95% CI)” value (BRST (Breast Cancer), N=14)?
Answer: 4.17 (1.22, NE) months

Question: What about the “Confirmed Objective Response Rate n(%) (95% CI)” value (CCA (Cholangiocarcinoma), N=31) of the same molecule?
Answer: 16 (51.6%)

Question: And the “Disease Control Rate n(%) (95% CI)” value (CCA (Cholangiocarcinoma), N=31)?
Answer: 30 (96.8%)

Question: What about the “Median PFS (95% CI)” value (CCA (Cholangiocarcinoma), N=31) of the same molecule?
Answer: 8.25 (6.41, 9.72) months

Question: What about the “Clinical Benefit Rate n(%) (95% CI)” value (CRC (Colorectal Cancer), N=6) of the same molecule?
Answer: 1 (16.7%)

Question: And the “Confirmed Objective Response Rate n(%) (95% CI)” value (CRC (Colorectal Cancer), N=6)?
Answer: 0 (NE, NE) %

Question: What about the “Disease Control Rate n(%) (95% CI)” value (CRC (Colorectal Cancer), N=6) of the same molecule?
Answer: 2 (33.3%)

Question: And the “Median PFS (95% CI)” value (CRC (Colorectal Cancer), N=6)?
Answer: 1.15 (0.43, NE) months

Question: What about the “Clinical Benefit Rate n(%) (95% CI)” value (CRVX (Cervical Cancer), N=4) of the same molecule?
Answer: 1 (25.0%)

Question: And the “Confirmed Objective Response Rate n(%) (95% CI)” value (CRVX (Cervical Cancer), N=4)?
Answer: 0 (NE, NE) %

Question: And the “Disease Control Rate n(%) (95% CI)” value (CRVX (Cervical Cancer), N=4)?
Answer: 3 (75.0%)

Question: What about the “Median PFS (95% CI)” value (CRVX (Cervical Cancer), N=4) of the same molecule?
Answer: 3.52 (1.38, NE) months

Question: And the “Clinical Benefit Rate n(%) (95% CI)” value [1]?
Answer: 5 (62.5%)

Question: What about the “Confirmed Objective Response Rate n(%) (95% CI)” value [1] of the same molecule?
Answer: 2 (25.0%)

Question: What about the “Disease Control Rate n(%) (95% CI)” value [1] of the same molecule?
Answer: 7 (87.5%)

Question: What about the “Median DOR (95% CI)” value [1] of the same molecule?
Answer: NE (2.66, NE)

Question: And the “Median PFS (95% CI)” value [1]?
Answer: 4.78 (2.04, NE) months

Question: And the “Clinical Benefit Rate n(%) (95% CI)” value [2]?
Answer: 3 (50.0%)

Question: And the “Confirmed Objective Response Rate n(%) (95% CI)” value [2]?
Answer: 3 (50.0%)

Question: And the “Disease Control Rate n(%) (95% CI)” value [2]?
Answer: 4 (66.7%)

Question: What about the “Median PFS (95% CI)” value [2] of the same molecule?
Answer: 4.11 (1.31, NE) months

Question: What about the “Clinical Benefit Rate n(%) (95% CI)” value (ESOPH (Esophageal Cancer), N=6) of the same molecule?
Answer: 1 (16.7%)

Question: What about the “Confirmed Objective Response Rate n(%) (95% CI)” value (ESOPH (Esophageal Cancer), N=6) of the same molecule?
Answer: 1 (16.7%)

Question: What about the “Disease Control Rate n(%) (95% CI)” value (ESOPH (Esophageal Cancer), N=6) of the same molecule?
Answer: 2 (33.3%)

Question: What about the “Median PFS (95% CI)” value (ESOPH (Esophageal Cancer), N=6) of the same molecule?
Answer: 1.31 (0.30, NE) months

Question: And the “Clinical Benefit Rate n(%) (95% CI)” value (GSTRC (Gastric Cancer), N=5)?
Answer: 0 (NE, NE) %

Question: And the “Confirmed Objective Response Rate n(%) (95% CI)” value (GSTRC (Gastric Cancer), N=5)?
Answer: 0 (NE, NE) %

Question: What about the “Disease Control Rate n(%) (95% CI)” value (GSTRC (Gastric Cancer), N=5) of the same molecule?
Answer: 3 (60.0%)

Question: What about the “Median PFS (95% CI)” value (GSTRC (Gastric Cancer), N=5) of the same molecule?
Answer: 2.30 (1.22, NE) months

Question: What about the “Clinical Benefit Rate n(%) (95% CI)” value (HGG (High-grade Glioma), N=29) of the same molecule?
Answer: 10 (34.5%)

Question: What about the “Confirmed Objective Response Rate n(%) (95% CI)” value (HGG (High-grade Glioma), N=29) of the same molecule?
Answer: 3 (10.3%)

Question: And the “Disease Control Rate n(%) (95% CI)” value (HGG (High-grade Glioma), N=29)?
Answer: 16 (55.2%)

Question: And the “Median DOR (95% CI)” value (HGG (High-grade Glioma), N=29)?
Answer: NE (NE, NE)

Question: And the “Median PFS (95% CI)” value (HGG (High-grade Glioma), N=29)?
Answer: 3.86 (2.96, 5.19) months

Question: And the “Clinical Benefit Rate n(%) (95% CI)” value [3]?
Answer: 2 (40.0%)

Question: And the “Confirmed Objective Response Rate n(%) (95% CI)” value [3]?
Answer: 2 (40.0%)

Question: What about the “Disease Control Rate n(%) (95% CI)” value [3] of the same molecule?
Answer: 4 (80.0%)

Question: And the “Median PFS (95% CI)” value [3]?
Answer: 4.04 (0.39, NE) months

Question: What about the “Clinical Benefit Rate n(%) (95% CI)” value (LGG (Low-grade Glioma), N=6) of the same molecule?
Answer: 3 (50.0%)

Question: What about the “Confirmed Objective Response Rate n(%) (95% CI)” value (LGG (Low-grade Glioma), N=6) of the same molecule?
Answer: 2 (33.3%)

Question: What about the “Disease Control Rate n(%) (95% CI)” value (LGG (Low-grade Glioma), N=6) of the same molecule?
Answer: 4 (66.7%)

Question: And the “Median DOR (95% CI)” value (LGG (Low-grade Glioma), N=6)?
Answer: NE (NE, NE)

Question: What about the “Median PFS (95% CI)” value (LGG (Low-grade Glioma), N=6) of the same molecule?
Answer: NE (2.76, NE)

Question: What about the “Clinical Benefit Rate n(%) (95% CI)” value (OVAR (Ovarian Cancer), N=4) of the same molecule?
Answer: 1 (25.0%)

Question: What about the “Confirmed Objective Response Rate n(%) (95% CI)” value (OVAR (Ovarian Cancer), N=4) of the same molecule?
Answer: 1 (25.0%)

Question: And the “Disease Control Rate n(%) (95% CI)” value (OVAR (Ovarian Cancer), N=4)?
Answer: 2 (50.0%)

Question: And the “Median PFS (95% CI)” value (OVAR (Ovarian Cancer), N=4)?
Answer: 6.70 (NE, NE) months

Question: What about the “Clinical Benefit Rate n(%) (95% CI)” value (Other, N=31) of the same molecule?
Answer: 18 (58.1%)

Question: And the “Confirmed Objective Response Rate n(%) (95% CI)” value (Other, N=31)?
Answer: 8 (25.8%)

Reference: US20250000858A1, “FGFR TYROSINE KINASE INHIBITORS FOR THE TREATMENT OF ADVANCED SOLID TUMORS” (JANSSEN PHARMACEUTICA NV, priority 2021, published 2025)
